In patent US10562897B2, “Substituted 3,4-dihydro-2H-pyrido[1,2-a]pyrazine-1,6-diones as gamma secretase modulators” (Janssen Pharmaceutica NV, priority 2014, dated 2020):
Structures can show the parent of a compound that is named as a salt. Where two headings read alike, the source gives them in different places.

What was measured:
Aβ42 = experiment: In vivo efficacy: brain level of soluble Aβ42, non-transgenic rodents, single oral dose 30 mg/kg, 4 h, MSD electrochemiluminescence, untreated control = 100; design: species or system mouse; details: for response vs control in vivo at 30 mg/kg: Mus musculus, read-out: Aβ42 (% vs Ctrl) _Mean
Text: (§1) To determine whether acute administration of an Aβ42 lowering agent would reduce Aβ42 levels in vivo, non-transgenic rodents, e.g. mice or rats were used. Animals treated with the Aβ42 lowering agent were examined and compared to those untreated or treated with vehicle and brain levels of soluble Aβ42, Aβ40, Aβ38, and Aβ37 were quantitated by Meso Scale Discovery's (MSD) electrochemiluminescence detection technology. Treatment periods varied from hours (h) to days and were adjusted based on the results of the Aβ42 lowering once a time course of onset of effect could be established.
(§2) A typical protocol for measuring Aβ42 lowering in vivo is shown but it is only one of many variations that could be used to optimize the levels of detectable Aβ. For example, Aβ42 lowering compounds were formulated in 20% of Captisol® (a sulfobutyl ether of β-cyclodextrin) in water or 20% hydroxypropyl β cyclodextrin. The Aβ42 lowering agents were administered as a single oral dose or by any acceptable route of administration to overnight fasted animals. After 4 h, the animals were sacrificed and Aβ42 levels were analysed.
(§3) Blood was collected by decapitation and exsanguinations in EDTA-treated collection tubes. Blood was centrifuged at 1900 g for 10 minutes (min) at 4° C. and the plasma recovered and flash frozen for later analysis. The brain was removed from the cranium and hindbrain. The cerebellum was removed and the left and right hemisphere were separated. The left hemisphere was stored at −18° C. for quantitative analysis of test compound levels. The right hemisphere was rinsed with phosphate-buffered saline (PBS) buffer and immediately frozen on dry ice and stored at −80° C. until homogenization for biochemical assays.
(§4) Mouse brains from non-transgenic animals were resuspended in 8 volumes of 0.4% DEA (diethylamine)/50 mM NaCl containing protease inhibitors (Roche-11873580001 or 04693159001) per gram of tissue, e.g. for 0.158 g brain, add 1.264 ml of 0.4% DEA. All samples were homogenized in the FastPrep-24 system (MP Biomedicals) using lysing matrix D (MPBio #6913-100) at 6 m/s for 20 seconds. Homogenates were centrifuged at 20800×g for 5 min and supernatants collected. Supernatants were centrifuged at 221.300×g for 50 min. The resulting high speed supernatants were then transferred to fresh eppendorf tubes. Nine parts of supernatant were neutralized with 1 part 0.5 M Tris-HCl pH 6.8 and used to quantify Aβ.
(§5) To quantify the amount of Aβ42, Aβ40, Aβ38, and Aβ37 in the soluble fraction of the brain homogenates, simultaneous specific detection of Aβ42, Aβ40, Aβ38, and Aβ37 was performed using MSD's electro-chemiluminescence multiplex detection technology. In this assay purified monoclonal antibodies specific for Abeta37 (JRD/Aβ37/3), Abeta38 (J&JPRD/Aβ38/5), Abeta40 (JRF/cAβ40/28), and Abeta42 (JRF/cAβ42/26) were coated on MSD 4-plex plates. Briefly, the standards (a dilution of synthetic Aβ42, Aβ40, Aβ38, and Aβ37) were prepared in 1.5 ml Eppendorf tube in Ultraculture, with final concentrations ranging from 10000 to 0.3 pg/m. The samples and standards were co-incubated with Sulfo-tag labelled JRF/rAß/2 antibody to the N-terminus of Aβ as detector antibody. 50 μl of conjugate/sample or conjugate/standards mixtures were then added to the antibody-coated plate. The plate was allowed to incubate overnight at 4° C. in order to allow formation of the antibody-amyloid complex. Following this incubation and subsequent wash steps the assay was finished by adding read buffer according to the manufacturer's instructions (Meso Scale Discovery, Gaitherburg, Md.).
(§6) The SULFO-TAG emits light upon electrochemical stimulation initiated at the electrode. MSD Sector instrument SI6000 was used for signal read-out.
In this model a Aß42 lowering compared to untreated animals would be advantageous, in particular a Aß42 lowering with at least 10%, more in particular a Aß42 lowering with at least 20%. […]

Aβ40 = experiment: In vivo efficacy: brain level of soluble Aβ40, non-transgenic rodents, single oral dose 30 mg/kg, 4 h, MSD electrochemiluminescence, untreated control = 100; design: species or system mouse; details: Mus musculus, read-out: Aβ40 (% vs Ctrl) _Mean
Text: as §1, §2, §3, §4, §5
The SULFO-TAG emits light upon electrochemical stimulation initiated at the electrode. MSD Sector instrument SI6000 was used for signal read-out. […]

Aβ38 = experiment: In vivo efficacy: brain level of soluble Aβ38, non-transgenic rodents, single oral dose 30 mg/kg, 4 h, MSD electrochemiluminescence, untreated control = 100; design: species or system mouse; details: for response vs control in vivo at 30 mg/kg: Mus musculus, read-out: Aβ38 (% vs Ctrl) _Mean
Text: To determine whether acute administration of an Aβ38 increasing agents would increase Aβ38 levels in vivo, non-transgenic rodents, e.g. mice or rats were used. Animals treated with the Aβ38 increasing agents were examined and compared to those untreated or treated with vehicle and brain levels of soluble Aβ42, Aβ40, Aβ38, and Aβ37 were quantitated by MSD electrochemiluminescence detection technology.
Treatment periods varied from hours (h) to days and were adjusted based on the results of the Aβ38 increase once a time course of onset of effect could be established.
as §2, with “measuring Aβ38 increase” for “measuring Aβ42 lowering”, “example, Aβ38 increasing agents” for “example, Aβ42 lowering compounds”, “The Aβ38 increasing” for “The Aβ42 lowering”, “and Aβ38” for “and Aβ42”
as §3, §4
as §5, with “[…].” for “pg/m.”
as §6
In this model a Aß38 increase compared to untreated animals would be advantageous, in particular a Aß38 increase with at least 10%, more in particular a Aß38 increase with at least 20%. […]

[1] = dose 30 mg/kg oral dosing, 30 mg/kg

Compound | melting point [°C] | other results
Cc1cn(-c2ccc3n(c2=O)CC(C)N(Cc2ccc(C)c(N4CC5CC5C4)c2)C3=O)cn1 (centres unmarked) (as salt: HCl) [Compound 30] | 122 | 
Cc1cn(-c2ccc3n(c2=O)CC(C)N(CCN2CCCC(C(F)(F)F)C2)C3=O)cn1 (centres unmarked) (as salt: HCl) [Compound 43] | 138 | 
Cc1cn(-c2ccc3n(c2=O)CC(C)N(C(C)c2cc(OC4CC4)cc(C(F)(F)F)c2)C3=O)cn1 (centres unmarked) (as salt: HCl) [Compound 48] | 122 | 
Cc1cn(-c2ccc3n(c2=O)CC(C)N(C(C)c2coc4ccc(Cl)cc24)C3=O)cn1 (single isomer, unassigned) [Compound 57] |  | response vs control in vivo at 30 mg/kg (Aβ42; sc, 30 mpk sc): 100%; response vs control in vivo at 30 mg/kg (Aβ40; sc, 30 mpk sc (footnote *)): 105%; response vs control in vivo at 30 mg/kg (Aβ38; sc, 30 mpk sc): 134%
Cc1cn(-c2ccc3n(c2=O)CCN(C(C)c2coc4cc(F)c(Cl)cc24)C3=O)cn1 (single isomer, unassigned) [Compound 60] | 234 | 
Cc1cn(-c2ccc3n(c2=O)CC(C)N(C(C)c2coc4cc(F)c(Cl)cc24)C3=O)cn1 (single isomer, unassigned) [Compound 65] |  | response vs control in vivo at 30 mg/kg (Aβ42; po, dose 30 mg/kg oral dosing): 58%; response vs control in vivo at 30 mg/kg (Aβ40; po, dose 30 mg/kg oral dosing): 52%; response vs control in vivo at 30 mg/kg (Aβ38; po, dose 30 mg/kg oral dosing): 165%
Cc1cn(-c2ccc3n(c2=O)CCN(C(C)c2coc4cc(C(F)(F)F)ccc24)C3=O)cn1 (single isomer, unassigned) [Compound 67] | 200 | 
Cc1cn(-c2ccc3n(c2=O)CCN(C(C)c2coc4cc(C(F)(F)F)ccc24)C3=O)cn1 (single isomer, unassigned) [Compound 68] | 204 | 
Cc1cn(-c2ccc3n(c2=O)CC(C)N(Cc2ccc(C)c(N4CC5CC5C4)c2)C3=O)cn1 (centres unmarked) [Compound 30] |  | response vs control in vivo at 30 mg/kg (Aβ42; po, dose 30 mg/kg oral dosing): 118%; response vs control in vivo at 30 mg/kg (Aβ40; po, dose 30 mg/kg oral dosing): 126%; response vs control in vivo at 30 mg/kg (Aβ38; po, dose 30 mg/kg oral dosing): 121%
Cc1cn(-c2ccc3n(c2=O)C[C@@H](C)N(Cc2cc(OC4CC4)cc(C(F)(F)F)c2)C3=O)cn1 [Compound 33] |  | response vs control in vivo at 30 mg/kg (Aβ42; po, dose 30 mg/kg oral dosing): 57%; response vs control in vivo at 30 mg/kg (Aβ40; po, dose 30 mg/kg oral dosing): 79%; response vs control in vivo at 30 mg/kg (Aβ38; po, dose 30 mg/kg oral dosing): 132%
Cc1cn(-c2ccc3n(c2=O)CC(C)N(Cc2cc4c(s2)CCC(C(F)(F)F)C4)C3=O)cn1 (centres unmarked) [Compound 34] |  | response vs control in vivo at 30 mg/kg (Aβ42; po, dose 30 mg/kg oral dosing): 104%; response vs control in vivo at 30 mg/kg (Aβ40; po, dose 30 mg/kg oral dosing): 128%; response vs control in vivo at 30 mg/kg (Aβ38; po, dose 30 mg/kg oral dosing): 102%
Cc1cn(-c2ccc3n(c2=O)CC(C)N(Cc2csc4c2CC(C(F)(F)F)CC4)C3=O)cn1 (centres unmarked) [Compound 35] |  | response vs control in vivo at 30 mg/kg (Aβ42; po, dose 30 mg/kg oral dosing): 112%; response vs control in vivo at 30 mg/kg (Aβ40; po, dose 30 mg/kg oral dosing): 108%; response vs control in vivo at 30 mg/kg (Aβ38; po, dose 30 mg/kg oral dosing): 116%
Cc1cn(-c2ccc3n(c2=O)CCN(CC2Cc4c(cccc4C(F)(F)F)O2)C3=O)cn1 (centres unmarked) [Compound 44] | 128 | 
Cc1cn(-c2ccc3n(c2=O)CC(C)N(C(C)c2cc(OC4CC4)cc(C(F)(F)F)c2)C3=O)cn1 (centres unmarked) [Compound 48] |  | Aβ42 (% vs Ctrl) _Mean (Aβ42; [1]): 60 % vs Ctrl; response vs control in vivo at 30 mg/kg (Aβ40; po, dose 30 mg/kg oral dosing): 91%; Aβ38 (% vs Ctrl) _Mean (Aβ38; [1]): 161 % vs Ctrl
Cc1cn(-c2ccc3n(c2=O)CCN(Cc2coc4c(F)cc(Cl)cc24)C3=O)cn1 [Compound 56] | 232 | 
Cc1cn(-c2ccc3n(c2=O)CC(C)N(C(C)c2coc4c(F)cc(Cl)cc24)C3=O)cn1 (centres unmarked) [Compound 96] | 201 | 

Continued, in another order:

melting point [°C] | Compound | other results
149 | Cc1cn(-c2ccc3n(c2=O)C[C@@H](C)N(Cc2cc(OC4CC4)cc(C(F)(F)F)c2)C3=O)cn1 (as salt: HCl) [Compound 33] | 
102 | Cc1cn(-c2ccc3n(c2=O)C[C@@H](C)N(CCc2cc(OC4CC4)cc(C(F)(F)F)c2)C3=O)cn1 (as salt: HCl) [Compound 40] | 
212 | Cc1cn(-c2ccc3n(c2=O)CC(C)N(C(C)c2ccc(OC(F)(F)F)c(O)c2)C3=O)cn1 (centres unmarked) (as salt: HCl) [Compound 51] | 
223 | Cc1cn(-c2ccc3n(c2=O)CC(C)N(C(C)c2ccc(OC(F)(F)F)c(O)c2)C3=O)cn1 (centres unmarked) (as salt: HCl) [Compound 52] | 
197 | Cc1cn(-c2ccc3n(c2=O)C[C@@H](C)N(CC2(c4cc(OC5CC5)cc(C(F)(F)F)c4)CC2)C3=O)cn1 (as salt: HCl) [Compound 53] | 
170 | Cc1cn(-c2ccc3n(c2=O)C[C@@H](C)N(Cc2cnn4ccc(C(F)(F)F)cc24)C3=O)cn1 [Compound 9] | 
147 | Cc1cn(-c2ccc3n(c2=O)CC(C)N(Cc2noc4ccc(Cl)cc24)C3=O)cn1 (centres unmarked) [Compound 14] | 
144 | Cc1cn(-c2ccc3n(c2=O)C[C@@H](C)N(Cc2cc(C(C)C)nn2CC(F)(F)F)C3=O)cn1 [Compound 19] | 
164 | Cc1cn(-c2ccc3n(c2=O)C[C@@H](C)N(Cc2cc4cc(C(F)(F)F)ccc4o2)C3=O)cn1 [Compound 26] | 
162 | Cc1cn(-c2ccc3n(c2=O)C[C@@H](C)N(Cc2csc(C(F)(F)F)c2)C3=O)cn1 [Compound 28] | 
110 | Cc1cn(-c2ccc3n(c2=O)C[C@@H](C)N(Cc2csc(CC(F)(F)F)c2)C3=O)cn1 [Compound 29] | 
225 | Cc1cn(-c2ccc3n(c2=O)C[C@@H](C)N(Cc2coc4c(C(F)(F)F)cccc24)C3=O)cn1 [Compound 71] | 
227 | Cc1cn(-c2ccc3n(c2=O)C[C@@H](C)N(Cc2coc4c(Cl)c(Cl)ccc24)C3=O)cn1 [Compound 97] | 
140 | Cc1cn(-c2ccc3n(c2=O)C[C@@H](C)N(Cc2noc4ccc(C(F)(F)F)cc24)C3=O)cn1 [Compound 101] | 
